Experimental findings from patent US5180742A, “Quinone derivatives, their production and use” (Takeda Chemical Industries, Ltd., priority 1984, dated 1993) are described below.

The target of one assay is T1, 5-Lipoxygenase (Rattus norvegicus, UniProt P12527).
T1 construct: endogenous in cells; host or cells: RBL-1 (rat basophilic leukemia cells)
T1 sequence (P12527 1-673): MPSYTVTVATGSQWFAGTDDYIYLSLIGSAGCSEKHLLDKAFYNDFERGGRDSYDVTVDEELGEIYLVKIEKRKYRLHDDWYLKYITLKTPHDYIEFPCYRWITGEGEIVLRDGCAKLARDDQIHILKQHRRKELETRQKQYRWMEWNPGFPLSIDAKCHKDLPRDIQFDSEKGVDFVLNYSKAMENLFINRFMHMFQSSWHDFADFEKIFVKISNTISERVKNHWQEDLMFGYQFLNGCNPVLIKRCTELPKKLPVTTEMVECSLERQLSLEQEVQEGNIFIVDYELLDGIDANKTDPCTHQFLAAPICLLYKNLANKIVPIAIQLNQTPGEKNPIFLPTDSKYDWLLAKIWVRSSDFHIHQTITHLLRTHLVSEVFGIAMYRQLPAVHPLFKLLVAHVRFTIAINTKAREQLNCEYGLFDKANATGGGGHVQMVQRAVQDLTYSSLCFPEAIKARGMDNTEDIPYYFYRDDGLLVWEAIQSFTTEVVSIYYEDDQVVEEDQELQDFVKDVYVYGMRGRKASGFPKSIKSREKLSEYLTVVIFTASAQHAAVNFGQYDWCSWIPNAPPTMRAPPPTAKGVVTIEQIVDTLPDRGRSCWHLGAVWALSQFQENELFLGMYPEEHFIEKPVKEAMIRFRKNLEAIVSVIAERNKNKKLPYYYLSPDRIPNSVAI
Briefly: 5-Lipoxygenase inhibitory activity: 5-HETE production in RBL-1 cells (HPLC). The format is cell-based, rat (RBL-1, rat basophilic leukemia cells). Conditions: arachidonic acid + A 23187, 37° C., 20 minutes, read-out: 5-HETE production inhibiting effect (IC50). The method, then:
5-Lipoxygenase Inhibitory Activity
10^7 RBL-1 cells (rat basophilic leukemia cells) were suspended in 0.5 ml of MCM (mast cell medium), and test solutions (made up of 0.5 ml of MCM, 50 μg of arachidonic acid, 10 μg of A 23187 (calcium ionophore, Eli Lilly) and 1 μM, 0.1 μM, 0.01 μM and0.001 μM as the final concentration of the quinone compound, respectively) prepared previously were added respectively to the suspension, followed by reaction at 37° C. for 20 minutes. After the conclusion of the reaction, 4 ml of ethanol and 1,4-dimethoxy-2-methyl-3-(3-methoxypropyl)naphthalene as the internal reference drug were added to the reaction solution, and the mixture was shaken thoroughly and allowed to stand at room temperature for 10 minutes. Then, it was centrifuged (2000 r.p.m.) for 10 minutes, and the supernatant fluid was separated and concentrated to dryness under reduced pressure. 0.5 Milliliter of 60% aqueous methanol was added to the concentrate, and 100 μl of the resulting solution was taken and subjected to high-performance liquid chromatography to determine amount of 5-HETE (5-hydroxyeicosatetraenoic acid). Determination of 5-HETE was made through measurement of an absorption at 237 nm with a UV absorption monitor.
The 5-HETE production inhibitory effect (IE) was expressed by [formula] wherein a is a peak height or peak area corrected by the peak for the internal reference when the quinone compound is not contained; b is a peak height or peak area corrected by the peak for the internal reference when the quinone compound is contained.

Assay [1] deals with Immunoglobulin-G1 mediated bronchoconstriction reaction. Description: Action on immunoglobulin-G1 mediated bronchoconstriction reaction in guinea pigs. The format is in vivo, Hartley guinea pigs. To be noted: Cavia porcellus; 20 mg/kg oral, 1 hour before antigen. The procedure:
Action on the Immunoglobulin-G1 Mediated Bronchoconstriction Reaction in Guinea Pigs
In accordance with the method of Orange and Moore (Orange, R. P. and Moore E. G. , J. Immunol., 116, 392-397, 1976), female and male Hartley guinea pigs weighing about 350 g were sensitized by intraperitoneal application of an emulsion (1 ml) composed of egg albumin (1 mg) and Freund's complete adjuvant (produced by Wako Pure-Chemical Industries, Ltd. of Japan). 3 Weeks after the sensitization, a serum antibody level in the sensitized guinea pigs was measured by means of the 3-hours passive cutaneous anaphylaxis (PCA) reaction in guinea pigs. […] The broncoconstriction reaction resulting from the antigen-antibody reaction was measured in accordance with the Konzett-Rossler method (Konzett, H. and Rossler, R., Naunyn-Schmiedeberg'ss Arch. exp. Path. pharmak., 195, 71-74, 1940). The guinea pigs were fixed on the dorsal position under anesthesia with a urethane (1.5 g/kg given intraperitonealy). An incision was made through the trachea, which was connected to an artificial respirator (manufactured by Harvard Co.) through an endotracheal tube, with a side tube of the endotracheal tube being attached to a brochoconstricting transducer (type 7020, manufactured by Ugobasile Co.). While an air volume per ventilation was adjusted to 5 to 7 ml and an air ventilation rate was controlled at 70 times/min., with a load pressure to the lung set at 10 cm H2 O, the overflown air volume was recorded on Rectigraphy-8S (manufactured by Sanei Sokki Inc. of Japan) through a transducer. After 1 mg/kg of gallamine triethiodide was given intravenously to the animals, 1 mg/kg of antigen, egg albumin dissolved in physiological saline, was applied intravenously to induce a brochoconstriction reaction. The bronchconstriction reaction was recorded for the period of time of 15 minutes. A drug was suspended in 5% gum arabic solution, and given orally 1 hour before the application of the antigen. Percent inhibition of the immunoglobuin G1 mediated bronchoconstriction reaction in guinea pigs are shown below in Table 3.

Assay [2] has as its system PAF-induced bronchoconstriction. Description: Effect on PAF-induced bronchoconstriction in guinea pigs. The format is in vivo. Conditions: one hour before PAF. The procedure: Platelet Activating Factor (PAF)-Induced Bronchoconstriction in Guinea Pigs
Experimental procedure in this experiment was the same as that in LTD4 -induced bronchoconstriction shown in Experimental example 7. PAF is an intraveneous dose of 1 μg/kg was used. Each specimen suspended in a 5% gum arabic solution was given orally one hour before the PAF administration.

As to `CCOC(=O)CCCCC(C1=C(C)C(=O)C(C)=C(C)C1=O)c1cccs1` (stereo not drawn) [Compound No. 1, ethyl 6-(3,5,6-trimethyl-1,4-benzoquinon-2-yl)-6-(2-thienyl)hexanoate], the IC50 at 5-Lipoxygenase came to 80 nM.

With `CCOC(=O)CCCCC(C1=C(C)C(=O)c2ccccc2C1=O)c1cccs1` (stereo not drawn) [Compound No. 3], the concentration for half-maximal inhibition (IC50) at 5-Lipoxygenase came out at 60 nM.

`CCOC(=O)CCCCC(C1=C(C)C(=O)c2ccccc2C1=O)c1ccccc1` (stereo not drawn) [Compound No. 5]: at 5-Lipoxygenase, the IC50 stood at 30 nM.

Consider `CCOC(=O)CCCCC(C1=C(C)C(=O)C(OC)=C(OC)C1=O)c1cccs1` (stereo not drawn) [Compound No. 6], for which the IC50 on 5-Lipoxygenase came out at 28 nM.

For `CCOC(=O)CCCCC(C1=C(C)C(=O)C(OC)=C(OC)C1=O)c1ccccc1` (stereo not drawn) [Compound No. 7], the IC50 on 5-Lipoxygenase was found to be 140 nM.

With `CC1=C(C)C(=O)C(C(CCCCCCC(=O)O)c2ccccc2)=C(C)C1=O` (stereo not drawn) [Compound No. 9, 8-phenyl-8-(3,5,6-trimethyl-1,4-benzoquinon-2-yl)octanoic acid], the IC50 at 5-Lipoxygenase amounted to 32 nM. Testing at 20 mg/kg in assay [1] gave an inhibition in vivo of 71%.

`CC1=C(C)C(=O)C(C(CCCCC(=O)O)c2ccccc2)=C(C)C1=O` (stereo not drawn) [Compound No. 10]: the IC50 on 5-Lipoxygenase was 34 nM. In assay [1], this molecule came in with an inhibition in vivo at 20 mg/kg of 80%.

Take `CC1=C(C)C(=O)C(C(CCCCCCCCC(=O)O)c2ccccc2)=C(C)C1=O` (stereo not drawn) [Compound No. 11]: on 5-Lipoxygenase, the IC50 is 34 nM.

For `CC1=C(C(CCCCC(=O)O)c2ccccc2)C(=O)c2ccccc2C1=O` (stereo not drawn) [Compound No. 12], 20 mg/kg produced 78% inhibition in vivo in assay [1].

In the case of `CC1=C(C(CCCCC(=O)O)c2cccs2)C(=O)c2ccccc2C1=O` (stereo not drawn) [Compound No. 13], the IC50 on 5-Lipoxygenase is 80 nM.

As for `CC1=C(C(CCCCCCC(=O)O)c2ccccc2)C(=O)c2ccccc2C1=O` (stereo not drawn) [Compound No. 14], the IC50 on 5-Lipoxygenase came to 200 nM. The molecule further gave an inhibition in vivo at 20 mg/kg in assay [1] of 78%.

Regarding `CC1=C(C)C(=O)C(C(CCC(=O)O)c2ccccc2)=C(C)C1=O` (stereo not drawn) [Compound No. 35, 4-(3,5,6-trimethyl-1,4-benzoquinon-2-yl)-4-phenylbutyric acid], the concentration for half-maximal inhibition (IC50) at 5-Lipoxygenase was 440 nM.

Take `COC1=C(OC)C(=O)C(C(CCC(=O)O)c2ccccc2)=C(C)C1=O` (stereo not drawn) [Compound No. 39]: the half-inhibitory concentration (IC50) at 5-Lipoxygenase is 1300 nM.

Take `CC1=C(C)C(=O)C(C(CCCCCCO)c2ccccc2)=C(C)C1=O` (stereo not drawn) [Compound No. 45, 7-(3,5,6-trimethyl-1,4-benzoquinon-2-yl)-7-phenylheptanol]: on 5-Lipoxygenase, the IC50 was determined as 28 nM. In assay [1], this molecule came in with an inhibition in vivo at 20 mg/kg of 91%.

As for `COC1=C(OC)C(=O)C(C(CCCCCCO)c2ccccc2)=C(C)C1=O` (stereo not drawn) [Compound No. 56, 7-(5,6-dimethoxy-3-methyl-1,4-benzoquinon-2-yl)-7-phenylheptanol], the IC50 on 5-Lipoxygenase worked out at 62 nM.

In the case of `CC1=C(C(CCCCCCCCC(=O)O)c2ccccc2)C(=O)c2ccccc2C1=O` (stereo not drawn) [compound 15], at 5-Lipoxygenase, the IC50 stood at 50 nM.

With `COC1=C(OC)C(=O)C(C(CCCCC(=O)O)c2ccccc2)=C(C)C1=O` (stereo not drawn) [compound 16], the IC50 on 5-Lipoxygenase stood at 32 nM.

Regarding `COC1=C(OC)C(=O)C(C(CCCCC(=O)O)c2cccs2)=C(C)C1=O` (stereo not drawn) [compound 17], the IC50 on 5-Lipoxygenase amounted to 200 nM.

As for `COC1=C(OC)C(=O)C(C(CCCCCCC(=O)O)c2ccccc2)=C(C)C1=O` (stereo not drawn) [compound 18], the IC50 on 5-Lipoxygenase was 200 nM.

For the molecule `CC1=C(C)C(=O)C(C(CCCCCCC(=O)O)c2ccc3c(c2)CCC3)=C(C)C1=O` (stereo not drawn) [compound 25], the inhibition in vivo at 20 mg/kg in assay [1] was found to be 83%.

Turning to `COc1ccc(C(CCCCCC(=O)O)C2=C(C)C(=O)c3ccccc3C2=O)cc1` (stereo not drawn) [compound 26], testing at 20 mg/kg in assay [1] gave an inhibition in vivo of 85%.

With `CC1=C(C(CCCCCC(=O)O)c2ccc3ccccc3c2)C(=O)c2ccccc2C1=O` (stereo not drawn) [compound 27], the inhibition in vivo at 20 mg/kg in assay [1] worked out at 81%.

In assay [1], `CC1=C(C(CCCCCC(=O)O)c2ccc3c(c2)CCC3)C(=O)c2ccccc2C1=O` (stereo not drawn) [compound 28] returned an inhibition in vivo at 20 mg/kg of 85%.

`CC1=C(C(CCCCCCC(=O)O)c2ccc3c(c2)CCC3)C(=O)c2ccccc2C1=O` (stereo not drawn) [compound 29] registered an inhibition in vivo at 20 mg/kg in assay [1] of 81%.

As for `CC1=C(C(CCCC(=O)O)c2ccccc2)C(=O)c2ccccc2C1=O` (stereo not drawn) [compound 38], the inhibition in vivo at 20 mg/kg in assay [1] came to 73%.

With `CC1=C(C)C(=O)C(C(CCCO)c2ccccc2)=C(C)C1=O` (stereo not drawn) [compound 46], the IC50 at 5-Lipoxygenase is 730 nM.

On to `CCCCCCC(C1=C(C)C(=O)C(C)=C(C)C1=O)c1ccccc1` (stereo not drawn) [compound 49], for which, in assay [1], the inhibition in vivo at 20 mg/kg came out at 84%.

Regarding `CC1=C(C)C(=O)C(C(CCCCCCOC(N)=O)c2ccccc2)=C(C)C1=O` (stereo not drawn) [compound 59], the inhibition in vivo at 20 mg/kg in assay [1] worked out at 83%.

`CC1=C(C)C(=O)C(C(CCCCCCCO)c2ccc3c(c2)CCC3)=C(C)C1=O` (stereo not drawn) [compound 76] had an inhibition in vivo at 20 mg/kg in assay [1] of 89%.

`CC1=C(C(CCCCCC(=O)O)c2ccccc2)C(=O)c2ccccc2C1=O` (stereo not drawn) [compound 86] gave an inhibition in vivo at 20 mg/kg in assay [1] of 80%.

On to `CC1=C(C(CCCCCC(=O)O)c2ccc(F)cc2)C(=O)c2ccccc2C1=O` (stereo not drawn) [compound 89], for which at 20 mg/kg the inhibition in vivo in assay [1] was 65%.

`CC1=C(C)C(=O)C(C(CCCCCC(N)=O)c2ccccc2)=C(C)C1=O` (stereo not drawn) [compound 146, 7-(3,5,6-trimethyl-1,4-benzoquinon-2-yl)-7-phenylheptanamide]: the figures for the “% Inhibition of PAF-induced bronchoconstriction” value in assay [2] (0.31 mg/kg oral), in assay [2] (1.25 mg/kg oral) and in assay [2] (5 mg/kg oral) were 49.7%, 80.3% and 100.0%, respectively.

Take `CC1=C(C)C(=O)C(C(CCCCCC(=O)N2CCN(CCc3ccccc3)CC2)c2ccccc2)=C(C)C1=O` (stereo not drawn) [compound 163, 4-[7-(3,5,6-trimethyl-1,4-benzoquinon-2-yl)-7-phenylheptanoyl]-(2-phenylethyl)piperazine]: in assay [2] (5 mg/kg oral), the “% Inhibition of PAF-induced bronchoconstriction” value was 59.9%.
